From patent US4127446A, “Process for producing antibiotics mimosamycin and chlorocarcins A, B and C” (priority 1975, dated 1978)
Values after ≈ are worked out from the molar mass of the structure shown.

Assays:
acid-fast bacteria = experiment: Biological properties of mimosamycin: activity against acid-fast bacteria; assay type: cell-based
[1] = system: Mycobacterium bovis No. 10; experiment: microbe, parasite or virus in culture; assay type: cell-based; conditions: Mycobacterium tuberculosis variant bovis, NO.10, 672 h
[2] = system: Mycobacterium smegmatis ATCC607; experiment: Antimicrobial activity of mimosamycin (Table 4); conditions: Mycolicibacterium smegmatis, ATCC607, 48 h
[3] = system: highly streptomycin-resistant strains of human tubercle bacilli; assay type: cell-based; conditions: compared with normal strains of tubercle bacilli
Solubility = assay type: physicochemical
fungi = experiment: Biological properties of mimosamycin: activity against fungi; assay type: cell-based; conditions: at a concentration of 50 μg/ml
gram-negative bacteria = experiment: Biological properties of mimosamycin: activity against gram-negative bacteria; assay type: cell-based; conditions: at a concentration of 50 μg/ml
gram-positive bacteria = experiment: Biological properties of mimosamycin: activity against gram-positive bacteria; assay type: cell-based
tubercle bacilli = experiment: Activity of mimosamycin against tubercle bacilli (in words); assay type: cell-based

Compound: COC1=C(C)C(=O)c2cc(=O)n(C)cc2C1=O [Mimosamycin]
- activity against acid-fast bacteria (acid-fast bacteria): active against acid-fast bacteria
- MIC [1]: 6.25 µg/mL (≈ 26.8 µM)
- MIC [2]: 25 µg/mL (≈ 107 µM)
- activity against highly streptomycin-resistant strains of human tubercle bacilli [3]: effective against highly streptomycin-resistant strains of human tubercle bacilli as is against normal strains of tubercle bacilli
- Solubility (Solubility; in ethyl ether, n-hexane): Sparingly soluble
- Solubility (Solubility; in methanol, ethanol, chloroform, esters, acetone): Easily soluble
- Solubility (Solubility; in water): Insoluble
- activity against fungi (fungi): non-effective
- activity against gram-negative bacteria (gram-negative bacteria): non-effective
- activity against gram-positive bacteria (gram-positive bacteria): active against gram-positive bacteria to a certain extent
- activity against tubercle bacilli (tubercle bacilli): specifically effective against tubercle bacilli
